# Assay results from US20080293683A1, “Hormone Replacement Therapy” (University of Kansas Medical Center, priority 2007, published 2008).
# Values joined by “and” are separate entries in the source; they are usually repeats but may differ in a detail not shown here. Identical values can stand only once. Like-named read-outs stand apart in the source and are kept apart here.
# Experiments:
# recombinant human ERα = biological target: T1, recombinant human ERα (Homo sapiens, UniProt P03372); test: ERα binding assay: competition of [3H]E2 binding by competing estrogens; conditions: for RBAα % (relative binding affinity for ERα, of E2): calculated against E2 = 100; for RBAα/RBAβ: ratio of relative binding affinities ERα over ERβ
# T1 construct: purchased PanVera Corporation (Madison, Wis.); host or cells: baculovirus-mediated expression system
# T1 sequence (P03372 1-595): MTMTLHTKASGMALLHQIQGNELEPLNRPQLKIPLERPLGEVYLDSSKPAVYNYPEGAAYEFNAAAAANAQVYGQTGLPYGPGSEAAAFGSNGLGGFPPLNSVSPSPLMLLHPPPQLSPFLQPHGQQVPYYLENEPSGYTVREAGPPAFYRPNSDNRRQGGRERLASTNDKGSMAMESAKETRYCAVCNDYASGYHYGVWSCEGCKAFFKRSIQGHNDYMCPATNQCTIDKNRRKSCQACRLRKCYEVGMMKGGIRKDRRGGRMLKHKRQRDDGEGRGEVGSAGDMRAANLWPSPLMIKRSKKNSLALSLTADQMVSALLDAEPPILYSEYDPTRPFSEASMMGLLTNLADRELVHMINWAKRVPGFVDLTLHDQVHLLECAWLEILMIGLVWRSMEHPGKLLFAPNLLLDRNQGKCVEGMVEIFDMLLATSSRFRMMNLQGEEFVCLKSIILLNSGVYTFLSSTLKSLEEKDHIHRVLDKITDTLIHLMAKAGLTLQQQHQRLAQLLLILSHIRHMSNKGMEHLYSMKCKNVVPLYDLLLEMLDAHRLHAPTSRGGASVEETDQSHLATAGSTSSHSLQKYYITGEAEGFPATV
# Text: (§1) The recombinant human ERα and ERβ proteins and bovine serum albumin (BSA) were obtained from PanVera Corporation (Madison, Wis.). According to the supplier, the recombinant human ERα and ERβ were produced in a baculovirus-mediated expression system, and they were soluble and functionally active, with post-translational modifications similar to those found in mammalian cells. See Reid et al., Human estrogen receptor-α: Regulation by synthesis, modification and degradation, Cell. Mol. Life.
# (§2) The following buffer solutions were used in the ER binding assays, and they were prepared beforehand and stored at 4° C. The binding buffer consisted of 10% glycerol, 2 mM dithiothreitol, 1 mg/mL BSA and 10 mM Tris-HCl at pH 7.5. The ERα washing buffer contained 40 mM Tris-HCl and 100 mM KCl (pH 7.4), but the ERG washing buffer contained only 40 mM Tris-HCl (adjusted to pH 7.4). The 50% hydroxylapatite slurry was prepared first by vigorously mixing 10 g hydroxylapatite with 60 mL of the Tris-HCl solution (50 mM, pH 7.4). Hydroxylapatite was then allowed to settle for 20 minutes at room temperature, and the supernatant was decanted. The above procedures were repeated 10 times, and afterwards hydroxylapatite was kept in the 50 mM Tris-HCl solution overnight at 4° C. Hydroxylapatite slurry was then adjusted to an approximate final concentration of 50% (v/v) using the same Tris-HCl solution and stored at 4° C., and the slurry was stable for up to several months.
# (§3) Note that all of the estrogens were initially dissolved in pure ethanol to a stock concentration of 1 mM, and then further diluted to 100 μM with 20% aqueous ethanol. […] Immediately before the addition of the ERα or ERβ protein, it was diluted in the binding buffer and mixed gently with repetitive pipettings. […] The incubation mixture was then mixed gently and thoroughly with repetitive pipettings. […] The binding mixture was incubated at room temperature for two hours. At the end of the incubation, 100 μL of the hydroxylapatite slurry was added to each tube and the tubes were incubated on ice for 15 minutes with 3 times of brief vortexing. An aliquot (1 mL) of the appropriate washing buffer was added, mixed, and centrifuged at 10,000 g for five minutes, and the supernatants were discarded. This wash step was repeated twice. Hydroxylapatite pellets were then resuspended in 200 μL ethanol (followed by another rinse with 200 μL ethanol), and then the content was transferred to scintillation vials (containing 4 mL of the scintillation fluid) for measurement of ^3H-radioactivity with a liquid scintillation counter (Packard Tri-CARB 2900 TR; Downers Grove, Ill.).
# (§4) To calculate the specific binding (pmol/mL) of the human ERα or ERβ protein at each concentration point, the following equation was used: […]
# (§5) When a lower radioligand concentration is used, the corresponding IC50 value will also be relatively lower, but when the radioligand concentration increases, the corresponding IC50 value will also increase. […] Since the RBA value is a parameter that is independent of the radioligand concentration used, we thus have placed more emphasis on the RBA values instead of the absolute IC50 values in interpreting the physiological meanings of the data from in vitro receptor competition assays.
# recombinant human ERβ = biological target: T2, recombinant human ERβ (Homo sapiens, UniProt Q92731); test: ERβ binding assay: competition of [3H]E2 binding by competing estrogens; conditions: for RBAβ (%) (relative binding affinity for ERβ, of E2): calculated against E2 = 100; for binding affinity for ERβ (in words): concentrations up to 1000 nM
# T2 construct: purchased PanVera Corporation (Madison, Wis.); host or cells: baculovirus-mediated expression system
# Text: as §1, §2, §3, §4, §5
# T2 sequence (Q92731 whole entry): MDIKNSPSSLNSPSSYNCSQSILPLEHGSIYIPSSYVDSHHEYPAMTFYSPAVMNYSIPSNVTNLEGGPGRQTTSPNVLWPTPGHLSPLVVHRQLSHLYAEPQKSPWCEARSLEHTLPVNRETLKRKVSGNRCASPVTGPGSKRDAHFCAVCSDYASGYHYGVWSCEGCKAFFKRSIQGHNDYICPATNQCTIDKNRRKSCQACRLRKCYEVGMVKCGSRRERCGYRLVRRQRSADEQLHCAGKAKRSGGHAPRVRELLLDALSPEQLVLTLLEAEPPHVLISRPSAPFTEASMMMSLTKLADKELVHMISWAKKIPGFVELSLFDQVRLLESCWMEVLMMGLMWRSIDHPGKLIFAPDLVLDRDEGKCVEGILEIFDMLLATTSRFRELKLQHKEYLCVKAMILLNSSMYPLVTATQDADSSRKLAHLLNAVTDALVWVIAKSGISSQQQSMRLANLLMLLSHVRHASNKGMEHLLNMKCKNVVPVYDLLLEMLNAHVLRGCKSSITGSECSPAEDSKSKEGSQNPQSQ
SMILES,"RBAα % (relative binding affinity for ERα, of E2) (recombinant human ERα)",RBAα/RBAβ (recombinant human ERα),IC50 (recombinant human ERα; read-out: ERα IC50) [nM],"RBAβ (%) (relative binding affinity for ERβ, of E2) (recombinant human ERβ)",IC50 (recombinant human ERβ; read-out: ERβ IC50) [nM],also measured
"C[C@]12CC[C@@H]3c4cc(O)c(O)cc4CC[C@H]3[C@@H]1C[C@@H](O)[C@@H]2O [2-OH-E3, 2-Hydroxyestriol]",2%,2,501,1,794,RBAα/RBAβ (recombinant human ERα; listed as 2-hydroxyestriol): about 2
"C[C@]12CC[C@@H]3c4ccc(O)c(Br)c4CC[C@H]3[C@@H]1CC[C@@H]2O [4-Br-E2, 4-Bromoestradiol]",7%,0.2,159,35,25.1,preference of binding affinity for ERβ over ERα (recombinant human ERβ; ERβ over ERα): about 5 fold
"COc1c(O)ccc2c1CCC1C2CCC2(C)C(=O)CCC12 (stereo not shown) [4-MeO-E1, 4-Methoxyestrone]",,,,,,IC50 (recombinant human ERα): > 1000 nM; binding affinity for ERα (in words) (recombinant human ERα): did not have appreciable binding affinity; IC50 (recombinant human ERβ): > 1000 nM; binding affinity for ERβ (in words) (recombinant human ERβ): did not have appreciable binding affinity
"COc1c(O)ccc2c1CCC1C2CCC2(C)C(O)CCC12 (stereo not shown) [4-MeO-E2, 4-Methoxyestradiol]",2%,2,,1,,IC50 (recombinant human ERα): 708 nM; RBAα/RBAβ (recombinant human ERα; listed as 4-methoxyestradiol): about 2; IC50 (recombinant human ERβ): 891 nM
"COc1c(O)ccc2c1CC[C@@H]1[C@@H]2CC[C@]2(C)[C@@H](O)[C@H](O)C[C@@H]12 [4-MeO-E3, 4-Methoxyestriol]",1%,1,1260,1,631,
"Cc1c(O)ccc2c1CC[C@@H]1[C@@H]2CC[C@]2(C)[C@@H](O)CC[C@@H]12 [4-Methyl-E2, 4-Methylestradiol]",7% and 9%,0.3,126,35,25.1,
"CC12CCC3c4ccc(O)c(N)c4CCC3C1CCC2=O (stereo not shown) [4-NH2-E1, 4-Aminoestrone]",3%,,355,,> 1000,binding affinity for ERα (in words) (recombinant human ERα; concentrations up to 1000 nM): very weak binding affinities; binding affinity for ERβ (in words) (recombinant human ERβ): very weak binding affinities
"CC12CCC3c4ccc(O)c([N+](=O)[O-])c4CCC3C1CCC2=O (stereo not shown) [4-NO2-E1, 4-Nitroestrone]",3%,,447,,> 1000,binding affinity for ERα (in words) (recombinant human ERα; concentrations up to 1000 nM): very weak binding affinities; binding affinity for ERβ (in words) (recombinant human ERβ): very weak binding affinities
"CC12CCC3c4ccc(O)c(O)c4CCC3C1CCC2=O (stereo not shown) [4-OH-E1, 4-Hydroxyestrone]",2%,2,708,1,708,RBAα/RBAβ (recombinant human ERα; listed as 4-hydroxyestrone): about 2
"C[C@]12CC[C@@H]3c4ccc(O)c(O)c4CC[C@H]3[C@@H]1CC[C@@H]2O [4-OH-E2, 4-Hydroxyestradiol]",70%,1.3,15.9,56,15.9,RBAα/RBAβ (recombinant human ERα; listed as 4-hydroxyestradiol): about 1.3
"CC12CCC3c4ccc(O)cc4C(=O)CC3C1CCC2=O (stereo not shown) [6-Keto-E1, 6-Ketoestrone]",2%,2,490,1,891,"RBAα/RBAβ (recombinant human ERα; listed as 6-ketoestrone): about 2; RBA for ERα, % of E1 (recombinant human ERα; relative to E1): 23%; RBA for ERβ, % of E1 (recombinant human ERβ; relative to E1): 50%"
"CC12CCC3c4ccc(O)cc4C(=O)CC3C1CCC2O (stereo not shown) [6-Keto-E2, 6-Ketoestradiol]",71%,1.3,,56,,IC50 (recombinant human ERα): 15.9 nM; RBAα/RBAβ (recombinant human ERα; listed as 6-ketoestradiol): about 1.3; IC50 (recombinant human ERβ): 15.9 nM
"C[C@]12CC[C@@H]3c4ccc(O)cc4C(=O)C[C@H]3[C@@H]1CC[C@H]2O [6-Keto-E2-17α, 6-Ketoestradiol-17α]",2%,2,,1,,"IC50 (recombinant human ERα): 562 nM; RBAα/RBAβ (recombinant human ERα; listed as 6-ketoestradiol-17α): about 2; RBA for ERα, % of E2-17α (recombinant human ERα; relative to E2-17α): 9%; IC50 (recombinant human ERβ): 1120 nM; RBA for ERβ, % of E2-17α (recombinant human ERβ; relative to E2-17α): 25%"
"CC12CCC3c4ccc(O)cc4C(=O)CC3C1CC(O)C2O (stereo not shown) [6-Keto-E3, 6-Ketoestriol]",25%,8.3,44.7,3,316,"RBAα/RBAβ (recombinant human ERα; listed as 6-ketoestriol): about 8.3; RBA for ERα, % of E3 (recombinant human ERα; relative to E3): 224%; RBA for ERβ, % of E3 (recombinant human ERβ; relative to E3): 8%"
"C[C@]12CC[C@@H]3c4ccc(O)cc4[C@@H](O)C[C@H]3[C@@H]1CC[C@@H]2O [6α-OH-E2, 6α-Hydroxyestradiol]",6%,1.5,200,4,251,RBAα/RBAβ (recombinant human ERα; listed as 6α-hydroxyestradiol): about 1.5
"C[C@]12CC[C@@H]3c4ccc(O)cc4[C@H](O)C[C@H]3[C@@H]1CC[C@@H]2O [6β-OH-E2, 6β-Hydroxyestradiol]",1%,0.5,794,2,562,
"C[C@]12C[C@@H](O)[C@@H]3c4ccc(O)cc4CC[C@H]3[C@@H]1CCC2=O [11α-OH-E1, 11α-Hydroxyestrone]",,,> 1000,,> 1000,
"C[C@]12C[C@@H](O)[C@@H]3c4ccc(O)cc4CC[C@H]3[C@@H]1CC[C@@H]2O [11α-OH-E2, 11α-Hydroxyestradiol]",,,> 1000,,> 1000,
"C#C[C@]1(O)CC[C@H]2[C@@H]3CCc4cc(O)ccc4[C@H]3[C@@H](OC)C[C@@]21C [11β-MeO-EE2, 11β-Methoxyethynylestradiol]",35%,1.8,31.6,20,44.7,RBAα/RBAβ (recombinant human ERα; listed as 11β-methoxyethynyl estradiol): about 1.8
"C[C@]12C[C@H](O)[C@@H]3c4ccc(O)cc4CC[C@H]3[C@@H]1CCC2=O [11β-OH-E1, 11β-Hydroxyestrone]",,,> 1000,,> 1000,
"CC12CC(O)C3c4ccc(O)cc4CCC3C1CCC2O (stereo not drawn) [11β-OH-E2, 11β-Hydroxyestradiol]",,,> 1000,,> 1000,
